Test results taken from patent US7872122B2, “Process for making Biolimus A9” (Chunghwa Chemical Synthesis & Biotech Co., Ltd., priority 2009, dated 2011).

Experiment: Stability of Biolimus A9 at 40° C. with added anti-oxidant BHT
Format: physicochemical
Source text: The yield data of different amounts of anti-oxidant as added into Biolimus A9 with respect to time lapse of weeks are summarized in Table 1 as below-mentioned.

- Purity (%) of Biolimus A9 (BHT 0.0% (w/w), 0 week): 99.7%
- Purity (%) of Biolimus A9 (BHT 0.0% (w/w), 2 weeks): 98.2%
- Purity (%) of Biolimus A9 (BHT 0.0% (w/w), 4 weeks): 88.4%
- Purity (%) of Biolimus A9 (BHT 0.0% (w/w), 6 weeks): 69.7%
- Purity (%) of Biolimus A9 (BHT 0.1% (w/w), 0 week): 99.7%
- Purity (%) of Biolimus A9 (BHT 0.1% (w/w), 2 weeks): 99.5%
- Purity (%) of Biolimus A9 (BHT 0.1% (w/w), 4 weeks): 99.5%
- Purity (%) of Biolimus A9 (BHT 0.1% (w/w), 6 weeks): 99.5%
- Purity (%) of Biolimus A9 (BHT 0.2% (w/w), 0 week): 99.6%
- Purity (%) of Biolimus A9 (BHT 0.2% (w/w), 2 weeks): 99.6%
- Purity (%) of Biolimus A9 (BHT 0.2% (w/w), 4 weeks): 99.5%
- Purity (%) of Biolimus A9 (BHT 0.2% (w/w), 6 weeks): 99.5%
- Purity (%) of Biolimus A9 (BHT 0.5% (w/w), 0 week): 99.6%
- Purity (%) of Biolimus A9 (BHT 0.5% (w/w), 2 weeks): 99.5%
- Purity (%) of Biolimus A9 (BHT 0.5% (w/w), 4 weeks): 99.4%
- Purity (%) of Biolimus A9 (BHT 0.5% (w/w), 6 weeks): 99.4%
- Purity (%) of Biolimus A9 (BHT 1.0% (w/w), 0 week): 99.6%
- Purity (%) of Biolimus A9 (BHT 1.0% (w/w), 2 weeks): 99.5%
- Purity (%) of Biolimus A9 (BHT 1.0% (w/w), 4 weeks): 99.4%
- Purity (%) of Biolimus A9 (BHT 1.0% (w/w), 6 weeks): 99.4%
- yield after six-week storage (BHT added for 0.1%, 0.2, 0.5%, and 1% (w/w), six-week storage): more than 99.4%
SMILES: CCOCCO[C@@H]1CC[C@@H](C[C@@H](C)[C@@H]2CC(=O)[C@H](C)/C=C(\C)[C@@H](O)[C@@H](OC)C(=O)[C@H](C)C[C@H](C)/C=C/C=C/C=C(\C)[C@@H](OC)C[C@@H]3CC[C@@H](C)[C@@](O)(O3)C(=O)C(=O)N3CCCC[C@H]3C(=O)O2)C[C@H]1OC [Biolimus A9]
